Measured values: patent US20210170033A1, “NOVEL CONJUGATES OF A PHARMACEUTICAL AGENT AND A MOIETY CAPABLE OF BINDING TO A GLUCOSE SENSING PROTEIN” (SANOFI, priority 2017, published 2021)
Read-outs that look alike come from different tables or passages of the source.

System: A2780 cells
Assay: Deoxy-glucose uptake assay in A2780 cells (14C 2-deoxy-D-glucose transport)
Format: cell-based
Settings: Homo sapiens
Method: 1. Deoxy-Glucose Uptake Assay in A2780 Cells:
For measurement of ^14C 2-deoxy-D-glucose transport into A2780 cells, cells were seeded in 96-well plates (Cytostar-T Plates Perkin Elmer, 70,000 cells/180 μl/well) in medium complete (RPMI1640+Glutamax (Life technologies #61870)) and grown for 48 hours. After 48 h, cells were washed once with 180 μL KRB (Krebs Ringer Bicarbonate) buffer, and stimulated in a dose dependent manner by adding 10 μL of test compound dilution 0-1.1 mM (11 times higher concentration than final) or 10 μL of 1.1 mM Cytochalasin B solution as negative control, to 90 μL KRB buffer and incubated for 20 minutes. After compound stimulation, the transport of ^14C 2-deoxy-D-glucose was started by adding of 50 μL 2-^14C[U] 2-deoxy-D-glucose solution (109.1 μM 2-deoxy-D-glucose cold and 33 μM 2-^14C[U] 2-deoxy-D-glucose 0.1 μCi/well) for 20 minutes. Transport was stopped by adding 50 μL/well 96 μM Cytochalasin B solution. Plates were measured in a 96-well Wallac Microbeta device. The cpm (counts per minute) values were used to determine the % inhibition values for the test compounds within each experiment. In a first step, the mean background value generated by Cytochalasin B (a potent glucose transporter inhibitor) treated cells, was subtracted from the mean values of the treated cells. All mean values were obtained from triplicates. For %-Inhibition results, the mean value of the untreated cells (just KRB) was set as 100%. All other mean values were calculated to this relation. IC50 were obtained by regression analysis of dose response curve with 7 or 14 concentrations, respectively, for each compound.

[1] = 20 min, inhibition of 14C 2-deoxy-D-glucose transport into A2780 cells, 20 min compound incubation, read-out: IC50

Row | IC50 [1] | Compound | IC50 (A2780, 20 min)
1 | 5.3 µM | COC(=O)COc1ccc(COc2cc(OC)c(C(=O)N[C@H]3[C@@H](OC)O[C@H](CO)[C@@H](O)[C@@H]3O)cc2Cl)cc1 (relative stereo) [Example 386] | 
2 | 1.8 µM | COc1cc(OCc2ccc(/C=C/C(=O)NCCCCCC(=O)OC(C)(C)C)cc2)c(Cl)cc1C(=O)N[C@H]1[C@@H](OC)O[C@H](CO)[C@@H](O)[C@@H]1O (relative stereo) [Example 392] | 
3 | 8.1 µM | COc1cc(OCc2nc3ccccc3n2CCCCCCCC(=O)O)c(Cl)cc1C(=O)N[C@H]1[C@@H](OC)O[C@H](CO)[C@@H](O)[C@@H]1O (relative stereo) [Example 482] | 
4 | 67.3 µM | C=CCO[C@@H]1O[C@H](COC(=O)c2ccc(OCc3ccccc3)c(OC)c2)[C@@H](O)[C@H](O)[C@H]1O [Example 11] | 
5 | 62.4 µM | CO[C@@H]1O[C@H](COC(=O)c2cc(C)c(OCc3ccccc3)c(C)c2)[C@@H](O)[C@H](O)[C@H]1O [Example 19] | 
6 |  | COc1cc(C(=O)OC[C@H]2O[C@@H](OCC[Si](C)(C)C)[C@H](O)[C@@H](O)[C@@H]2O)cc(Cl)c1OCCc1ccccc1 [Example 28] | 82.5 µM
7 | 40.7 µM | CO[C@@H]1O[C@H](COC(=O)c2cc(OCc3ccccc3)ccc2C)[C@@H](O)[C@H](O)[C@H]1O [Example 34] | 
8 |  | COc1cc(C(=O)OC[C@H]2O[C@@H](OCC[Si](C)(C)C)[C@H](O)[C@@H](O)[C@@H]2O)cc(Cl)c1OC(=O)c1ccccc1 [Example 36] | 47.4 µM
9 | 43.2 µM | COc1cc(C(=O)OC[C@H]2OC(O)[C@H](O)[C@@H](O)[C@@H]2O)cc(Cl)c1OCCc1ccccc1 (stereo partly shown) [Example 56] | 
10 | 29.2 µM | Cc1ccc(OCc2ccccc2)cc1C(=O)OC[C@H]1OC(O)[C@H](O)[C@@H](O)[C@@H]1O (stereo partly shown) [Example 61] | 
11 | 52.3 µM | CO[C@H]1O[C@H](CO)[C@@H](O)[C@H](O)[C@H]1OC(=O)c1cc(Cl)cc(OCc2ccccc2)c1 [Example 74] | 
12 | 20.1 µM | C#CCCC(=O)Nc1cccc(COc2c(Cl)cc(C(=O)O[C@@H]3C(O)[C@H](O)[C@@H](CO)O[C@@H]3OC)cc2OC)c1 (stereo partly shown) [Example 78] | 
13 | 22.2 µM | COc1cccc(COc2c(Cl)cc(C(=O)O[C@H]3[C@@H](OC)O[C@H](CO)[C@@H](O)[C@@H]3O)cc2OC)c1 [Example 88] | 
14 | 13.7 µM | Cc1ccc(OCc2ccccc2)cc1C(=O)OC[C@H]1OC(O)[C@H](O)[C@@H](O)[C@H]1O (stereo partly shown) [Example 102] | 
15 | 10 µM | CO[C@H]1O[C@H](CO)[C@@H](O)[C@H](O)[C@H]1OC(=O)c1cc(Cl)c(OCc2nccn2Cc2ccccc2)c(Cl)c1 [Example 117] | 
16 | 5.6 µM | COc1ncc(COc2c(Cl)c(C)c(C(=O)O[C@H]3[C@@H](OC)O[C@H](CO)[C@@H](O)[C@@H]3O)c(OC)c2Cl)cc1Cl [Example 126] | 
17 | 32.7 µM | COc1cc(C(=O)O[C@H]2[C@@H](O)[C@@H](CO)O[C@H](OC)[C@@H]2O)cc(Cl)c1OCc1nc2ccccc2n1C(C)C [Example 127] | 
18 | 76.4 µM | COc1cc(OCc2ccccc2)cc(C(=O)OC[C@H]2O[C@@H](OC)[C@H](O)[C@@H](O)[C@@H]2O)c1 [Example 136] | 
19 | 45.6 µM | CO[C@@H]1O[C@H](COC(=O)c2cc(OCc3ccccc3)c3cc[nH]c3c2)[C@@H](O)[C@H](O)[C@H]1O [Example 145] | 
20 | 18.5 µM | COc1cc(C(=O)OC[C@H]2O[C@@H](OC)[C@H](O)[C@@H](O)[C@@H]2O)cc(Cl)c1OCc1nc2ccccc2n1C(C)C [Example 151] | 
21 | 38 µM | COc1cc(C(=O)N[C@H]2[C@@H](OC)O[C@H](CO)[C@@H](O)[C@@H]2O)cc(Cl)c1OCc1ccccc1 [Example 179] | 
22 | 17.2 µM | COc1c(Cl)c(OCc2cccc(CNC(=O)OC(C)(C)C)c2)c(Cl)c(C)c1C(=O)N[C@H]1[C@@H](OC)O[C@H](CO)[C@@H](O)[C@@H]1O [Example 181] | 
23 | 6 µM | C#CCCCn1c(COc2c(Cl)cc(C(=O)O[C@H]3[C@@H](OC)O[C@H](CO)[C@@H](O)[C@@H]3O)cc2OC)nc2ccccc21 [Example 186] | 
24 | 10.2 µM | COc1ccc(COc2c(Cl)cc(C(=O)O[C@H]3[C@@H](OC)O[C@H](CO)[C@@H](O)[C@@H]3O)cc2OC)cc1 [Example 190] | 
25 | 27.5 µM | C#CCCC(=O)Nc1cccc(COc2c(Cl)cc(C(=O)O[C@@H]3[C@@H](O)[C@@H](OC)O[C@H](CO)[C@H]3O)c(C)c2Cl)c1 [Example 205] | 
26 | 2.5 µM | CO[C@H]1O[C@H](CO)[C@@H](O)[C@H](O)[C@H]1NC(=O)c1cc(Cl)c(OCc2cccc(C(=O)OC(C)(C)C)c2)c(Cl)c1C [Example 209] | 

Row | IC50 [1] | Compound | IC50 (A2780, 20 min)
27 | 0.6 µM | COc1ncc(COc2c(Cl)cc(C(=O)N[C@H]3[C@@H](OC)O[C@H](CO)[C@@H](O)[C@@H]3O)c(C)c2Cl)cc1Cl [Example 210] | 
28 | 1.5 µM | CCn1c(COc2c(Cl)cc(C(=O)O[C@H]3[C@@H](OC)O[C@H](CO)[C@@H](O)[C@@H]3O)cc2OC)nc2ccc(Br)cc21 [Example 213] | 
29 | 1.1 µM | COc1ncc(COc2c(Cl)cc(C(=O)O[C@H]3[C@@H](OC)O[C@H](CO)[C@@H](O)[C@@H]3O)c(C)c2Cl)cc1Cl [Example 215] | 
30 | 2.2 µM | COc1cc(C(=O)O[C@H]2[C@@H](OC)O[C@H](CO)[C@@H](O)[C@@H]2O)cc(Cl)c1OCc1cnc(OC)c(Cl)c1 [Example 216] | 
31 | 0.4 µM | COc1cc(OCc2ccc(/C=C/C(=O)NCCCC(=O)OC(C)(C)C)cc2)c(Cl)cc1C(=O)N[C@H]1[C@@H](OC)O[C@H](CO)[C@@H](O)[C@@H]1O [Example 236] | 
32 | 21.7 µM | COc1cc(C(=O)N[C@H]2[C@@H](OC)O[C@H](CO)[C@@H](O)[C@@H]2O)cc(Cl)c1OCc1nc2ccccc2n1C(C)C [Example 238] | 
33 | 6 µM | CO[C@H]1O[C@H](CO)[C@@H](O)[C@H](O)[C@H]1NC(=O)c1cc(Cl)c(OCc2ccc3c(cnn3C)c2)c(Cl)c1C [Example 240] | 
34 | 24.5 µM | COc1cccc(CCOc2c(Cl)cc(C(=O)O[C@H]3[C@@H](OC)O[C@H](CO)[C@@H](O)[C@@H]3O)c(C)c2Cl)c1 [Example 241] | 
35 | 19.8 µM | CO[C@H]1O[C@H](CO)[C@@H](O)[C@H](O)[C@H]1OC(=O)c1cc(Cl)c(OCCc2cccc(Cl)c2)c(Cl)c1C [Example 242] | 
36 | 27.4 µM | CO[C@H]1O[C@H](CO)[C@@H](O)[C@H](O)[C@H]1OC(=O)c1cc(Cl)c(OCCc2ccc(C)cc2)c(Cl)c1C [Example 243] | 
37 | 22.3 µM | CO[C@H]1O[C@H](CO)[C@@H](O)[C@H](O)[C@H]1OC(=O)c1cc(Cl)c(OCCc2ccc(Cl)cc2)c(Cl)c1C [Example 244] | 
38 | 63.6 µM | COC(=O)c1ccc(COc2c(Cl)cc(C(=O)N[C@H]3[C@@H](OC)O[C@H](CO)[C@@H](O)[C@@H]3O)c(C)c2Cl)cn1 [Example 245] | 
39 | 51.7 µM | COC(=O)c1cnc(COc2c(Cl)cc(C(=O)N[C@H]3[C@@H](OC)O[C@H](CO)[C@@H](O)[C@@H]3O)c(C)c2Cl)cn1 [Example 246] | 
40 | 6.5 µM | COC(=O)c1ccc(COc2c(Cl)cc(C(=O)O[C@H]3[C@@H](OC)O[C@H](CO)[C@@H](O)[C@@H]3O)c(C)c2Cl)cn1 [Example 252] | 
41 | 7.1 µM | COC(=O)c1cnc(COc2c(Cl)cc(C(=O)O[C@H]3[C@@H](OC)O[C@H](CO)[C@@H](O)[C@@H]3O)c(C)c2Cl)cn1 [Example 253] | 
42 | 0.3 µM | CO[C@H]1O[C@H](CO)[C@@H](O)[C@H](O)[C@H]1OC(=O)c1cc(Cl)c(OCc2cn3c(C)cccc3n2)c(Cl)c1C [Example 255] | 
43 | 1.1 µM | CO[C@H]1O[C@H](CO)[C@@H](O)[C@H](O)[C@H]1NC(=O)c1cc(Cl)c(OCc2cn3c(C)cccc3n2)c(Cl)c1C [Example 256] | 
44 | 7.2 µM | COC(=O)c1cc(COc2c(Cl)cc(C(=O)N[C@H]3[C@@H](OC)O[C@H](CO)[C@@H](O)[C@@H]3O)c(C)c2Cl)ccc1Cl [Example 257] | 
45 | 12.2 µM | CO[C@H]1O[C@H](CO)[C@@H](O)[C@H](O)[C@H]1OC(=O)c1cc(Cl)c(OCc2cccc(CO)n2)c(Cl)c1C [Example 259] | 
46 | 75.2 µM | CO[C@H]1O[C@H](CO)[C@@H](O)[C@H](O)[C@H]1NC(=O)c1cc(Cl)c(OCc2ccc3c(c2)nnn3C)c(Cl)c1C [Example 260] | 
47 | 0.5 µM | CO[C@H]1O[C@H](CO)[C@@H](O)[C@H](O)[C@H]1OC(=O)c1cc(Cl)c(OCc2ccc3c(c2)nnn3C)c(Cl)c1C [Example 261] | 
48 | 1 µM | COC(=O)c1cc(COc2c(Cl)cc(C(=O)O[C@H]3[C@@H](OC)O[C@H](CO)[C@@H](O)[C@@H]3O)c(C)c2Cl)ccc1Cl [Example 262] | 
49 | 13.4 µM | CO[C@H]1O[C@H](CO)[C@@H](O)[C@H](O)[C@H]1OC(=O)c1cc(Cl)c(OCc2cccc(C(=O)OC(C)(C)C)c2)c(Cl)c1C [Example 269] | 
50 | 27.8 µM | CCOC(=O)c1cccc(COc2c(Cl)cc(C(=O)N[C@H]3[C@@H](OC)O[C@H](CO)[C@@H](O)[C@@H]3O)c(C)c2Cl)n1 [Example 270] | 
51 | 4.2 µM | CCOC(=O)c1cccc(COc2c(Cl)cc(C(=O)O[C@H]3[C@@H](OC)O[C@H](CO)[C@@H](O)[C@@H]3O)c(C)c2Cl)n1 [Example 271] | 
52 | 17.9 µM | C#CCCC(=O)Nc1cc(COc2c(Cl)cc(C(=O)N[C@H]3[C@@H](OC)O[C@H](CO)[C@@H](O)[C@@H]3O)c(C)c2Cl)cnc1OC [Example 274] | 
